Assay results from US8772250B2, “Compositions and methods for treating ischemia and ischemia-reperfusion injury” (Ischemix, LLC, priority 2010, dated 2014).
Like-named read-outs stand apart in the source and are kept apart here.

Experiment: Pharmacokinetic evaluation in humans
Type: in vivo
Conditions: human; for clearance / Cmax / Vd / half-life / AUC(0-t) / AUC(0-inf): plasma
Protocol: Plasma and urine RLip-EA-OH concentrations were measured at BASi, Inc. (West Lafayette, Ind.) using a LC/MS/MS method with positive turbo ion spray, in the multiple reaction-monitoring mode. The quantifiable range for human plasma was 1.00 to 500 ng/mL and QC samples were included at 3.00, 75.0 and 375 ng/mL.
The PK population included subjects who received RLip-EA-OH and had ≧1 post-dose PK measurement. […] Plasma samples from 24 subjects (6 RLip-EA-OH subjects per cohort) were analyzed (Tables 16 and 17).

C[C@H](NC(=O)[C@H](CCC(=O)O)NC(=O)CCCC[C@@H]1CCSS1)C(=O)O [RLip-EA-OH, N-(R)-lipoyl-L-glutamyl-L- alanine]
clearance (150 mg, compartmental, read-out: CL, Median (converted)): 363 mL/min | clearance (150 mg, compartmental, read-out: CL, Minimum, maximum): 260 to 512 mL/min | Cmax (150 mg, compartmental, read-out: Estimated Cmax, Mean (SD)): 18100 ng/mL | Cmax (150 mg, compartmental, read-out: Estimated Cmax, Median): 18400 ng/mL | Cmax (150 mg, compartmental, read-out: Estimated Cmax, Minimum, maximum): 14200 to 20600 ng/mL | Vd (150 mg, compartmental, read-out: Vss, Mean (SD)): 13 L | Vd (150 mg, compartmental, read-out: Vss, Median): 13 L | Vd (150 mg, compartmental, read-out: Vss, Minimum, maximum): 9 to 17 L | half-life (150 mg, compartmental, read-out: t1/2, Mean (SD) (converted)): 1.8 h | half-life (150 mg, compartmental, read-out: t1/2, Median (converted)): 1.4 h | half-life (150 mg, compartmental, read-out: t1/2, Minimum, maximum): 1.1 to 3.3 h | AUC(0-t) (150 mg, noncompartmental, read-out: AUC0-t, Mean (SD)): 6980 ng·h/mL | AUC(0-t) (150 mg, noncompartmental, read-out: AUC0-t, Median): 6900 ng·h/mL | AUC(0-t) (150 mg, noncompartmental, read-out: AUC0-t, Minimum, maximum): 4970 to 9330 ng·h/mL | AUC(0-inf) (150 mg, noncompartmental, read-out: AUCinf, Mean (SD)): 6990 ng·h/mL | AUC(0-inf) (150 mg, noncompartmental, read-out: AUCinf, Median): 6920 ng·h/mL | AUC(0-inf) (150 mg, noncompartmental, read-out: AUCinf, Minimum, maximum): 4980 to 9340 ng·h/mL | clearance (150 mg, noncompartmental, read-out: CL, Mean (SD) (converted)): 372 mL/min | clearance (150 mg, noncompartmental, read-out: CL, Median (converted)): 363 mL/min | clearance (150 mg, noncompartmental, read-out: CL, Minimum, maximum): 268 to 502 mL/min | Cmax (150 mg, noncompartmental, read-out: Cmax, Mean (SD)): 17100 ng/mL | Cmax (150 mg, noncompartmental, read-out: Cmax, Median): 17000 ng/mL | Cmax (150 mg, noncompartmental, read-out: Cmax, Minimum, maximum): 14900 to 20000 ng/mL | Vd (150 mg, noncompartmental, read-out: Vss, Mean (SD)): 13.6 L | Vd (150 mg, noncompartmental, read-out: Vss, Median): 13.2 L | Vd (150 mg, noncompartmental, read-out: Vss, Minimum, maximum): 9.9 to 16.6 L | half-life (150 mg, noncompartmental, read-out: t1/2, Mean (SD) (converted)): 1.23 h | half-life (150 mg, noncompartmental, read-out: t1/2, Median (converted)): 1.25 h | half-life (150 mg, noncompartmental, read-out: t1/2, Minimum, maximum): 0.97 to 1.52 h | AUC(0-inf) (300 mg, compartmental, read-out: AUCinf, Mean (SD)): 16400 ng·h/mL | AUC(0-inf) (300 mg, compartmental, read-out: AUCinf, Median): 16400 ng·h/mL | AUC(0-inf) (300 mg, compartmental, read-out: AUCinf, Minimum, maximum): 11500 to 22600 ng·h/mL | clearance (300 mg, compartmental, read-out: CL, Mean (SD) (converted)): 323 mL/min | clearance (300 mg, compartmental, read-out: CL, Median (converted)): 305 mL/min | clearance (300 mg, compartmental, read-out: CL, Minimum, maximum): 222 to 435 mL/min | Cmax (300 mg, compartmental, read-out: Estimated Cmax, Mean (SD)): 46300 ng/mL | Cmax (300 mg, compartmental, read-out: Estimated Cmax, Median): 43400 ng/mL | Cmax (300 mg, compartmental, read-out: Estimated Cmax, Minimum, maximum): 31000 to 70100 ng/mL | Vd (300 mg, compartmental, read-out: Vss, Mean (SD)): 11 L | Vd (300 mg, compartmental, read-out: Vss, Median): 11 L | Vd (300 mg, compartmental, read-out: Vss, Minimum, maximum): 8 to 16 L | half-life (300 mg, compartmental, read-out: t1/2, Mean (SD) (converted)): 1.5 h | half-life (300 mg, compartmental, read-out: t1/2, Median (converted)): 1.2 h | half-life (300 mg, compartmental, read-out: t1/2, Minimum, maximum): 1 to 2.5 h | AUC(0-t) (300 mg, noncompartmental, read-out: AUC0-t, Mean (SD)): 16500 ng·h/mL | AUC(0-t) (300 mg, noncompartmental, read-out: AUC0-t, Median): 16500 ng·h/mL | AUC(0-t) (300 mg, noncompartmental, read-out: AUC0-t, Minimum, maximum): 11600 to 23100 ng·h/mL | AUC(0-inf) (300 mg, noncompartmental, read-out: AUCinf, Mean (SD)): 16500 ng·h/mL | AUC(0-inf) (300 mg, noncompartmental, read-out: AUCinf, Median): 16500 ng·h/mL | AUC(0-inf) (300 mg, noncompartmental, read-out: AUCinf, Minimum, maximum): 11600 to 23100 ng·h/mL | clearance (300 mg, noncompartmental, read-out: CL, Mean (SD) (converted)): 322 mL/min | clearance (300 mg, noncompartmental, read-out: CL, Median (converted)): 303 mL/min | clearance (300 mg, noncompartmental, read-out: CL, Minimum, maximum): 217 to 430 mL/min | Cmax (300 mg, noncompartmental, read-out: Cmax, Mean (SD)): 42200 ng/mL | Cmax (300 mg, noncompartmental, read-out: Cmax, Median): 42200 ng/mL | Cmax (300 mg, noncompartmental, read-out: Cmax, Minimum, maximum): 32000 to 58100 ng/mL | Vd (300 mg, noncompartmental, read-out: Vss, Mean (SD)): 11.7 L | Vd (300 mg, noncompartmental, read-out: Vss, Median): 11.1 L | Vd (300 mg, noncompartmental, read-out: Vss, Minimum, maximum): 8.9 to 15.1 L | half-life (300 mg, noncompartmental, read-out: t1/2, Mean (SD) (converted)): 1.45 h | half-life (300 mg, noncompartmental, read-out: t1/2, Median (converted)): 1.14 h | half-life (300 mg, noncompartmental, read-out: t1/2, Minimum, maximum): 0.99 to 2.35 h | clearance (300 mg, read-out: CL (converted)): 322 mL/min | half-life (300 mg, read-out: mean terminal-phase t1/2 (converted)): 1.45 h | AUC(0-inf) (across doses 20 to 300 mg, read-out: AUCinf): 583 to 16500 ng·h/mL | half-life (at the mg dose, read-out: mean terminal-phase t1/2 (converted)): 0.86 h | Vd (decreased with increasing dose, read-out: Vss): 12 to 18 L | Vd (read-out: volume of distribution of the central compartment (Vc)): ~6 L | V1, Mean (SD) (20 mg, compartmental): 6.61 (3.20) L | V1, Median (20 mg, compartmental): 6.13 L | % Excreted Unchanged, Mean (SD) (20 mg, noncompartmental): 28.5 (9.6) % | % Excreted Unchanged, Median (20 mg, noncompartmental): 31.0% | V1, Mean (SD) (60 mg, compartmental): 6.62 (1.65) L | V1, Median (60 mg, compartmental): 6.69 L | % Excreted Unchanged, Mean (SD) (60 mg, noncompartmental): 39.1 (4.0) % | % Excreted Unchanged, Median (60 mg, noncompartmental): 40.6% | V1, Mean (SD) (150 mg, compartmental): 6.09 (1.42) L | V1, Median (150 mg, compartmental): 5.86 L | % Excreted Unchanged, Mean (SD) (150 mg, noncompartmental): 32.5 (13.9) % | % Excreted Unchanged, Median (150 mg, noncompartmental): 33.3% | V1, Mean (SD) (300 mg, compartmental): 4.91 (1.56) L | V1, Median (300 mg, compartmental): 5.59 L | % Excreted Unchanged, Mean (SD) (300 mg, noncompartmental): 43.6 (8.8) % | % Excreted Unchanged, Median (300 mg, noncompartmental): 46.3%
